{"source": "ChEMBL document CHEMBL1201862", "about": "“PubChem BioAssay data set” (2004)", "assay_in_all_cases": "growth of human tumour cells (NCI), 48 h", "key": {"ACHN": {"tested_on": "ACHN"}, "HCT-15": {"tested_on": "HCT-15"}, "HL-60": {"tested_on": "HL-60"}, "HOP-92": {"tested_on": "HOP-92"}, "K562": {"tested_on": "K562"}, "OVCAR-3": {"tested_on": "OVCAR-3"}, "OVCAR-8": {"tested_on": "OVCAR-8"}, "SNB-78": {"tested_on": "SNB-78"}, "UACC-62": {"tested_on": "UACC-62"}, "A498": {"tested_on": "A498"}, "BT-549": {"tested_on": "BT-549"}, "DU-145": {"tested_on": "DU-145"}, "Hs-578T": {"tested_on": "Hs-578T"}, "MCF7": {"tested_on": "MCF7"}, "MDA-MB-231": {"tested_on": "MDA-MB-231"}, "MDA-MB-435": {"tested_on": "MDA-MB-435"}, "MDA-N": {"tested_on": "MDA-N"}, "NCI/ADR-RES": {"tested_on": "NCI/ADR-RES"}, "PC-3": {"tested_on": "PC-3"}, "T47D": {"tested_on": "T47D"}}, "note": "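Cells were grown in 96-well plates and exposed to each compound for 48 hours at five concentrations; endpoints were interpolated linearly between bracketing concentrations, or set to the highest concentration if not reached. At the GI50, growth is halved.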 Activity calls are given as the source filed them. No stated cut-off is given here; in the data, active = GI50 up to about 1.1 µM and inactive = higher. Starred links: 1 amine or outer side, 2 acyl side, 3 side chain; linkers in the order of their positions; H or OH if unused. Positions of bridges follow the written chain, without caps; N, C: chain ends. Non-standard residues stand in square brackets, D forms with d. Residues, ends and D or L forms follow the SMILES beside them. ξ: configuration not given here. X11 = CCC(C)C(N[*:1])C(O)CC(=O)O[C@H](C(=O)C(C)C(=O)[*:2])C(C)C; X10 = O=C([C@@H]1CC(O)CN1[*:1])[*:2]; NMeY = CN[C@@H](Cc1ccc(O)cc1)C(=O)O; ξNMeL = CNC(CC(C)C)C(=O)O; ξT = CC(O)C(N)C(=O)O", "data": [{"smiles": "O=C(c1cccs1)N(C(=S)N1CCN(c2ccccc2)CC1)c1ccccc1", "values": [{"measurement": "GI50", "setting": "ACHN", "result": "> 100 µM (inactive)"}, {"measurement": "GI50", "setting": "HCT-15", "result": "> 100", "unit": "µM"}, {"measurement": "GI50", "setting": "HL-60", "result": "> 100 µM (inactive)"}, {"measurement": "GI50", "setting": "HOP-92", "result": "> 100 µM (inactive)"}, {"measurement": "GI50", "setting": "K562", "result": "> 100 µM (inactive)"}, {"measurement": "GI50", "setting": "OVCAR-3", "result": "> 100 µM (inactive)"}, {"measurement": "GI50", "setting": "OVCAR-8", "result": "> 100 µM (inactive)"}, {"measurement": "GI50", "setting": "SNB-78", "result": "> 100 µM (inactive)"}, {"measurement": "GI50", "setting": "UACC-62", "result": "> 100 µM (inactive)"}]}, {"smiles": "CC1(C)OCC[C@@H]1[Si](C)(C)C", "values": [{"measurement": "GI50", "setting": "A498", "result": "30.1 µM (inactive)"}, {"measurement": "GI50", "setting": "ACHN", "result": "27.5 µM (inactive)"}, {"measurement": "GI50", "setting": "HCT-15", "result": 32.4, "unit": "µM"}, {"measurement": "GI50", "setting": "HOP-92", "result": "55.8 µM (inactive)"}, {"measurement": "GI50", "setting": "K562", "result": "21.4 µM (inactive)"}, {"measurement": "GI50", "setting": "OVCAR-3", "result": "71.9 µM (inactive)"}, {"measurement": "GI50", "setting": "OVCAR-8", "result": "> 100 µM (inactive)"}, {"measurement": "GI50", "setting": "SNB-78", "result": "> 100 µM (inactive)"}, {"measurement": "GI50", "setting": "UACC-62", "result": "24.5 µM (inactive)"}]}, {"smiles": "CC(C)(/N=N/C(C)(C)C(=O)NCCO)C(=O)NCCO", "values": [{"measurement": "GI50", "setting": "A498", "result": "> 100 µM (inactive)"}, {"measurement": "GI50", "setting": "ACHN", "result": "> 100 µM (inactive)"}, {"measurement": "GI50", "setting": "BT-549", "result": "> 100 µM (inactive)"}, {"measurement": "GI50", "setting": "DU-145", "result": "> 100 µM (inactive)"}, {"measurement": "GI50", "setting": "HCT-15", "result": "> 100", "unit": "µM"}, {"measurement": "GI50", "setting": "HL-60", "result": "> 100 µM (inactive)"}, {"measurement": "GI50", "setting": "HOP-92", "result": "> 100 µM (inactive)"}, {"measurement": "GI50", "setting": "Hs-578T", "result": "> 100 µM (inactive)"}, {"measurement": "GI50", "setting": "K562", "result": "> 100 µM (inactive)"}, {"measurement": "GI50", "setting": "MCF7", "result": "> 100 µM (inactive)"}, {"measurement": "GI50", "setting": "MDA-MB-231", "result": "> 100 µM (inactive)"}, {"measurement": "GI50", "setting": "MDA-MB-435", "result": "> 100 µM (inactive)"}, {"measurement": "GI50", "setting": "MDA-N", "result": "> 100 µM (inactive)"}, {"measurement": "GI50", "setting": "NCI/ADR-RES", "result": "> 100 µM (inactive)"}, {"measurement": "GI50", "setting": "OVCAR-3", "result": "> 100 µM (inactive)"}, {"measurement": "GI50", "setting": "OVCAR-8", "result": "> 100 µM (inactive)"}, {"measurement": "GI50", "setting": "PC-3", "result": "> 100 µM (inactive)"}, {"measurement": "GI50", "setting": "T47D", "result": "> 100 µM (inactive)"}, {"measurement": "GI50", "setting": "UACC-62", "result": "> 100 µM (inactive)"}]}, {"smiles": "CN(C)C(=S)SCC(N)=O", "values": [{"measurement": "GI50", "setting": "A498", "result": "> 100 µM (inactive)"}, {"measurement": "GI50", "setting": "ACHN", "result": "> 100 µM (inactive)"}, {"measurement": "GI50", "setting": "BT-549", "result": "> 100 µM (inactive)"}, {"measurement": "GI50", "setting": "DU-145", "result": "> 100 µM (inactive)"}, {"measurement": "GI50", "setting": "HCT-15", "result": "> 100", "unit": "µM"}, {"measurement": "GI50", "setting": "HL-60", "result": "> 100 µM (inactive)"}, {"measurement": "GI50", "setting": "HOP-92", "result": "> 100 µM (inactive)"}, {"measurement": "GI50", "setting": "Hs-578T", "result": "> 100 µM (inactive)"}, {"measurement": "GI50", "setting": "K562", "result": "> 100 µM (inactive)"}, {"measurement": "GI50", "setting": "MCF7", "result": "> 100 µM (inactive)"}, {"measurement": "GI50", "setting": "MDA-MB-231", "result": "> 100 µM (inactive)"}, {"measurement": "GI50", "setting": "MDA-MB-435", "result": "> 100 µM (inactive)"}, {"measurement": "GI50", "setting": "MDA-N", "result": "> 100 µM (inactive)"}, {"measurement": "GI50", "setting": "NCI/ADR-RES", "result": "> 100 µM (inactive)"}, {"measurement": "GI50", "setting": "OVCAR-3", "result": "> 100 µM (inactive)"}, {"measurement": "GI50", "setting": "OVCAR-8", "result": "> 100 µM (inactive)"}, {"measurement": "GI50", "setting": "PC-3", "result": "> 100 µM (inactive)"}, {"measurement": "GI50", "setting": "T47D", "result": "> 100 µM (inactive)"}, {"measurement": "GI50", "setting": "UACC-62", "result": "> 100 µM (inactive)"}]}, {"smiles": "CCOC(=O)c1c(-c2ccccc2)c(C(OC(c2ccccc2)c2c(-c3ccccc3)c(C(=O)OCC)n3ccccc23)c2ccccc2)c2ccccn12", "note": "(configuration not stated)", "values": [{"measurement": "GI50", "setting": "ACHN", "result": "> 100 µM (inactive)"}, {"measurement": "GI50", "setting": "HCT-15", "result": "> 100", "unit": "µM"}, {"measurement": "GI50", "setting": "HL-60", "result": "> 100 µM (inactive)"}, {"measurement": "GI50", "setting": "K562", "result": "> 100 µM (inactive)"}, {"measurement": "GI50", "setting": "OVCAR-3", "result": "> 100 µM (inactive)"}, {"measurement": "GI50", "setting": "OVCAR-8", "result": "> 100 µM (inactive)"}, {"measurement": "GI50", "setting": "SNB-78", "result": "> 100 µM (inactive)"}, {"measurement": "GI50", "setting": "UACC-62", "result": "> 100 µM (inactive)"}]}, {"smiles": "CCOC(=O)c1nc2ccccc2n(CC)c1=O", "values": [{"measurement": "GI50", "setting": "A498", "result": "> 100 µM (inactive)"}, {"measurement": "GI50", "setting": "ACHN", "result": "> 100 µM (inactive)"}, {"measurement": "GI50", "setting": "BT-549", "result": "> 100 µM (inactive)"}, {"measurement": "GI50", "setting": "DU-145", "result": "> 100 µM (inactive)"}, {"measurement": "GI50", "setting": "HCT-15", "result": "> 100", "unit": "µM"}, {"measurement": "GI50", "setting": "HL-60", "result": "> 100 µM (inactive)"}, {"measurement": "GI50", "setting": "HOP-92", "result": "> 100 µM (inactive)"}, {"measurement": "GI50", "setting": "Hs-578T", "result": "> 100 µM (inactive)"}, {"measurement": "GI50", "setting": "K562", "result": "> 100 µM (inactive)"}, {"measurement": "GI50", "setting": "MCF7", "result": "> 100 µM (inactive)"}, {"measurement": "GI50", "setting": "MDA-MB-231", "result": "> 100 µM (inactive)"}, {"measurement": "GI50", "setting": "MDA-MB-435", "result": "> 100 µM (inactive)"}, {"measurement": "GI50", "setting": "MDA-N", "result": "> 100 µM (inactive)"}, {"measurement": "GI50", "setting": "NCI/ADR-RES", "result": "> 100 µM (inactive)"}, {"measurement": "GI50", "setting": "OVCAR-3", "result": "> 100 µM (inactive)"}, {"measurement": "GI50", "setting": "OVCAR-8", "result": "> 100 µM (inactive)"}, {"measurement": "GI50", "setting": "PC-3", "result": "> 100 µM (inactive)"}, {"measurement": "GI50", "setting": "T47D", "result": "> 100 µM (inactive)"}, {"measurement": "GI50", "setting": "UACC-62", "result": "> 100 µM (inactive)"}]}, {"smiles": "CCC(C)C1NC(=O)C(NC(=O)C(CC(C)C)N(C)C(=O)[C@@H]2CC(O)CN2)C(C)OC(=O)[C@H](Cc2ccc(OC)cc2)N(C)C(=O)[C@@H]2CCCN2C(=O)[C@H](CC(C)C)NC(=O)C(C)C(=O)[C@H](C(C)C)OC(=O)CC1O", "note": "(some centres not stated) (H-[X10][ξNMeL][ξT][X11]LP[NMeY](Me); ester 3-C)", "values": [{"measurement": "GI50", "setting": "A498", "result": "0.0548 µM (active)"}, {"measurement": "GI50", "setting": "ACHN", "result": "0.0382 µM (active)"}, {"measurement": "GI50", "setting": "BT-549", "result": "0.00609 µM (active)"}, {"measurement": "GI50", "setting": "DU-145", "result": "0.0363 µM (active)"}, {"measurement": "GI50", "setting": "HCT-15", "result": 0.472, "unit": "µM"}, {"measurement": "GI50", "setting": "HL-60", "result": "0.0114 µM (active)"}, {"measurement": "GI50", "setting": "HOP-92", "result": "0.0189 µM (active)"}, {"measurement": "GI50", "setting": "Hs-578T", "result": "< 0.001 µM (active)"}, {"measurement": "GI50", "setting": "K562", "result": "0.00394 µM (active)"}, {"measurement": "GI50", "setting": "MCF7", "result": "< 0.001 µM (active)"}, {"measurement": "GI50", "setting": "MDA-MB-231", "result": "0.0224 µM (active)"}, {"measurement": "GI50", "setting": "MDA-MB-435", "result": "0.0102 µM (active)"}, {"measurement": "GI50", "setting": "MDA-N", "result": "0.00561 µM (active)"}, {"measurement": "GI50", "setting": "NCI/ADR-RES", "result": "1.45 µM (inactive)"}, {"measurement": "GI50", "setting": "OVCAR-3", "result": "0.014 µM (active)"}, {"measurement": "GI50", "setting": "OVCAR-8", "result": "0.0384 µM (active)"}, {"measurement": "GI50", "setting": "PC-3", "result": "0.0135 µM (active)"}, {"measurement": "GI50", "setting": "T47D", "result": "0.0035 µM (active)"}, {"measurement": "GI50", "setting": "UACC-62", "result": "< 0.001 µM (active)"}]}]}
